Columns and labels:
786-0 = test: Growth inhibition of human 786-0 cells incubated for 48 hrs by sulforhodamine B assay; type: functional, cell-based; conditions: 786-0, 48 h
UACC-62 [1] = test: Growth inhibition of human UACC62 cells incubated for 48 hrs by sulforhodamine B assay; type: functional, cell-based; conditions: UACC-62, 48 h
NCI-H23 [2] = test: Growth inhibition of human NCI-H23 cells assessed as cell growth at 1 uM incubated for 48 hrs by sulforhodamine B assay relative to control; type: functional; conditions: NCI-H23, 48 h, read-out: Activity
UACC-62 [3] = test: Growth inhibition of human UACC62 cells assessed as cell growth at 100 uM incubated for 48 hrs by sulforhodamine B assay relative to control; type: functional; conditions: UACC-62, 48 h, read-out: Activity
NCI/ADR-RES [4] = test: Growth inhibition of human NCI/ADR-RES cells assessed as cell growth at 0.01 uM incubated for 48 hrs by sulforhodamine B assay relative to control; type: functional; conditions: read-out: Activity
NCI-H226 = test: Growth inhibition of human NCI-H226 cells assessed as cell growth at 0.01 uM incubated for 48 hrs by sulforhodamine B assay relative to control; type: functional; conditions: NCI-H226, 48 h, read-out: Activity
SF-539 = test: Growth inhibition of human SF539 cells assessed as cell growth at 100 uM incubated for 48 hrs by sulforhodamine B assay relative to control; type: functional; conditions: SF-539, 48 h, read-out: Activity
T47D = test: Growth inhibition of human T47D cells assessed as cell growth at 0.01 uM incubated for 48 hrs by sulforhodamine B assay relative to control; type: functional; conditions: read-out: Activity
RXF 393 = test: Growth inhibition of human RXF393 cells incubated for 48 hrs by sulforhodamine B assay; type: functional, cell-based; conditions: RXF 393, 48 h
MDA-MB-468 = test: Growth inhibition of human MDA-MB-468 cells incubated for 48 hrs by sulforhodamine B assay; type: functional, cell-based; conditions: MDA-MB-468, 48 h
HCT-15 = test: Growth inhibition of human HCT15 cells assessed as cell growth at 0.1 uM incubated for 48 hrs by sulforhodamine B assay relative to control; type: functional; conditions: HCT-15, 48 h, read-out: Activity
OVCAR-5 = test: Growth inhibition of human OVCAR5 cells assessed as cell growth at 100 uM incubated for 48 hrs by sulforhodamine B assay relative to control; type: functional; conditions: OVCAR-5, 48 h, read-out: Activity
SK-MEL-5 [5] = test: Growth inhibition of human SK-MEL-5 cells assessed as cell growth at 100 uM incubated for 48 hrs by sulforhodamine B assay relative to control; type: functional; conditions: SK-MEL-5, 48 h, read-out: Activity
OVCAR-3 [6] = test: Growth inhibition of human OVCAR3 cells assessed as cell growth at 0.01 uM incubated for 48 hrs by sulforhodamine B assay relative to control; type: functional; conditions: OVCAR-3, 48 h, read-out: Activity
OVCAR-3 [7] = test: Growth inhibition of human OVCAR3 cells incubated for 48 hrs by sulforhodamine B assay; type: functional, cell-based; conditions: OVCAR-3, 48 h
SK-MEL-2 = test: Growth inhibition of human SK-MEL-2 cells assessed as cell growth at 1 uM incubated for 48 hrs by sulforhodamine B assay relative to control; type: functional; conditions: SK-MEL-2, 48 h, read-out: Activity
Malme-3M [8] = test: Growth inhibition of human MALME-3M cells assessed as cell growth at 100 uM incubated for 48 hrs by sulforhodamine B assay relative to control; type: functional; conditions: read-out: Activity
NCI/ADR-RES [9] = test: Growth inhibition of human NCI/ADR-RES cells assessed as cell growth at 1 uM incubated for 48 hrs by sulforhodamine B assay relative to control; type: functional; conditions: read-out: Activity
NCI-H23 [10] = test: Growth inhibition of human NCI-H23 cells assessed as cell growth at 100 uM incubated for 48 hrs by sulforhodamine B assay relative to control; type: functional; conditions: NCI-H23, 48 h, read-out: Activity
SK-MEL-28 [11] = test: Growth inhibition of human SK-MEL-28 cells assessed as cell growth at 100 uM incubated for 48 hrs by sulforhodamine B assay relative to control; type: functional; conditions: SK-MEL-28, 48 h, read-out: Activity
SK-MEL-5 [12] = test: Growth inhibition of human SK-MEL-5 cells assessed as cell growth at 0.1 uM incubated for 48 hrs by sulforhodamine B assay relative to control; type: functional; conditions: SK-MEL-5, 48 h, read-out: Activity
SR [13] = test: Growth inhibition of human SR cells assessed as cell growth at 1 uM incubated for 48 hrs by sulforhodamine B assay relative to control; type: functional; conditions: read-out: Activity
SK-MEL-28 [14] = test: Growth inhibition of human SK-MEL-28 cells assessed as cell growth at 0.1 uM incubated for 48 hrs by sulforhodamine B assay relative to control; type: functional; conditions: SK-MEL-28, 48 h, read-out: Activity
HCT-116 [15] = test: Growth inhibition of human HCT116 cells assessed as cell growth at 0.1 uM incubated for 48 hrs by sulforhodamine B assay relative to control; type: functional; conditions: HCT-116, 48 h, read-out: Activity
NCI-H522 = test: Growth inhibition of human NCI-H522 cells assessed as cell growth at 10 uM incubated for 48 hrs by sulforhodamine B assay relative to control; type: functional; conditions: NCI-H522, 48 h, read-out: Activity
Malme-3M [16] = test: Growth inhibition of human MALME-3M cells assessed as cell growth at 1 uM incubated for 48 hrs by sulforhodamine B assay relative to control; type: functional; conditions: read-out: Activity
M14 = test: Growth inhibition of human M14 cells assessed as cell growth at 0.1 uM incubated for 48 hrs by sulforhodamine B assay relative to control; type: functional; conditions: M14, 48 h, read-out: Activity
SR [17] = test: Growth inhibition of human SR cells incubated for 48 hrs by sulforhodamine B assay; type: functional, cell-based
HCT-116 [18] = test: Growth inhibition of human HCT116 cells incubated for 48 hrs by sulforhodamine B assay; type: functional, cell-based; conditions: HCT-116, 48 h
[19] = read-out: LC50 (the source's name)
[20] = read-out: pLC50 (the source's name) (converted)

Compound `COc1cc(Cl)cc(-c2nn(-c3cccc(NC(=O)Nc4cc(C(F)(F)F)cc(C(F)(F)F)c4)c3)cc2-c2ccncc2)c1` has an IC50 (786-0) of 0.57 µM, a GI50 (786-0; read-out: GI50) of 0.558 µM and a CC50 (786-0; [19]) of 0.0631 µM. The TGI (786-0; read-out: TGI) was 2.17 µM, the GI50 (786-0; read-out: pGI50 (converted)) was 0.562 µM and the CC50 (786-0; [20]) was 6.31 µM. The TGI (786-0; read-out: pTGI (converted)) was 2.19 µM, the IC50 (UACC-62 [1]) was 0.36 µM and the GI50 (UACC-62 [1]; read-out: GI50) was 0.357 µM. For the same compound, the CC50 (UACC-62 [1]; [19]) was 0.0532 µM, the TGI (UACC-62 [1]; read-out: TGI) was 1.5 µM and the GI50 (UACC-62 [1]; read-out: pGI50 (converted)) was 0.355 µM. It also gave a CC50 (UACC-62 [1]; [20]) of 5.37 µM, a TGI (UACC-62 [1]; read-out: pTGI (converted)) of 1.51 µM and a growth at 1 µM (NCI-H23 [2]) of 8%. The growth at 100 µM (UACC-62 [3]) was -71%, the growth at 0.01 µM (NCI/ADR-RES [4]) was 99% and the growth at 0.01 µM (NCI-H226) was 101%. The growth at 100 µM (SF-539) was -73%, the growth at 0.01 µM (T47D) was 96% and the IC50 (RXF 393) was 1.26 µM. It also gave an LC50 (RXF 393) of 14.8 µM, a TGI (RXF 393; read-out: TGI) of 3.92 µM and a GI50 (RXF 393; read-out: pGI50 (converted)) of 1.26 µM. For the same compound, the TGI (RXF 393; read-out: pTGI (converted)) was 3.89 µM, the IC50 (MDA-MB-468) was 0.34 µM and the GI50 (MDA-MB-468; read-out: GI50) was 0.336 µM. The CC50 (MDA-MB-468; [19]) was over 100 µM, the TGI (MDA-MB-468; read-out: TGI) was 2.52 µM and the GI50 (MDA-MB-468; read-out: pGI50 (converted)) was 0.339 µM. It also gave a CC50 (MDA-MB-468; [20]) of over 100 µM, a TGI (MDA-MB-468; read-out: pTGI (converted)) of 2.51 µM and a growth at 0.1 µM (HCT-15) of 90%. For the same compound, the growth at 100 µM (OVCAR-5) was -80%, the growth at 100 µM (SK-MEL-5 [5]) was -70% and the growth at 0.01 µM (OVCAR-3 [6]) was 105%. For the same compound, the IC50 (OVCAR-3 [7]) was 0.33 µM, the GI50 (OVCAR-3 [7]; read-out: GI50) was 0.334 µM and the TGI (OVCAR-3 [7]; read-out: TGI) was 1.41 µM. For the same compound, the GI50 (OVCAR-3 [7]; read-out: pGI50 (converted)) was 0.331 µM, the CC50 (OVCAR-3 [7]; [20]) was 34.7 µM and the TGI (OVCAR-3 [7]; read-out: pTGI (converted)) was 1.41 µM. The growth at 1 µM (SK-MEL-2) was 40%, the growth at 100 µM (Malme-3M [8]) was -39% and the growth at 1 µM (NCI/ADR-RES [9]) was 48%. The growth at 100 µM (NCI-H23 [10]) was -58%, the growth at 100 µM (SK-MEL-28 [11]) was -58% and the growth at 0.1 µM (SK-MEL-5 [12]) was 97%. The growth at 1 µM (SR [13]) was 28%, the growth at 0.1 µM (SK-MEL-28 [14]) was 102% and the growth at 0.1 µM (HCT-116 [15]) was 97%. The growth at 10 µM (NCI-H522) was -15.6%, the growth at 1 µM (Malme-3M [16]) was 36% and the growth at 0.1 µM (M14) was 93%. It also gave an IC50 (SR [17]) of 0.45 µM, a GI50 (SR [17]; read-out: GI50) of 0.452 µM and a CC50 (SR [17]; [19]) of over 100 µM. For the same compound, the TGI (SR [17]; read-out: TGI) was 3.31 µM, the GI50 (SR [17]; read-out: pGI50 (converted)) was 0.447 µM and the CC50 (SR [17]; [20]) was over 100 µM. For the same compound, the TGI (SR [17]; read-out: pTGI (converted)) was 3.31 µM, the IC50 (HCT-116 [18]) was 0.33 µM and the GI50 (HCT-116 [18]; read-out: GI50) was 0.332 µM. It also gave a TGI (HCT-116 [18]; read-out: TGI) of 1.27 µM, a GI50 (HCT-116 [18]; read-out: pGI50 (converted)) of 0.331 µM and a CC50 (HCT-116 [18]; [20]) of 6.61 µM. The TGI (HCT-116 [18]; read-out: pTGI (converted)) was 1.26 µM.

Source: ChEMBL document CHEMBL4308841, “Synthesis, in vitro antiproliferative activity, and kinase inhibitory effects of pyrazole-containing diarylureas and diarylamides” (Eur J Med Chem, 2018)
